Test results reported in patent US11590116B2 (THERAVANCE BIOPHARMA R&D IP, LLC, priority 2019, dated 2023).

Experiments:
[1] = tested on: TGF-β-stimulated SMAD3 phosphorylation in BEAS-2B cells; experiment: Cellular ALK5 potency assay, inhibition of TGF-β stimulated pSMAD3 formation in BEAS-2B cells; format: cell-based; details: Homo sapiens; inhibition of TGF-β stimulated pSMAD3 formation, BEAS-2B cells; read-out: BEAS2B pIC50 (converted)
In short: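 Cells seeded overnight; rinse with supplemented HBSS; compound 1 h at 37 °C; TGF-β 10 ng/mL final, 30 min; lyse; AlphaLISA acceptor and detector beads 2 h apart, read next day. Potency expressed as pIC50.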

[2] = target: T1, recombinant human ALK5 (TGF-βR1) protein (Homo sapiens, UniProt P36897); experiment: Biochemical ALK5 (TGF-βR1) assay to measure pKi (LANCE Ultra ULight kinase assay); details: apparent pKi from pIC50 by Cheng-Prusoff, read-out: ALK5 pKi (converted)
T1 construct: purchased Life Technologies PR9075A
T1 sequence (P36897 34-503): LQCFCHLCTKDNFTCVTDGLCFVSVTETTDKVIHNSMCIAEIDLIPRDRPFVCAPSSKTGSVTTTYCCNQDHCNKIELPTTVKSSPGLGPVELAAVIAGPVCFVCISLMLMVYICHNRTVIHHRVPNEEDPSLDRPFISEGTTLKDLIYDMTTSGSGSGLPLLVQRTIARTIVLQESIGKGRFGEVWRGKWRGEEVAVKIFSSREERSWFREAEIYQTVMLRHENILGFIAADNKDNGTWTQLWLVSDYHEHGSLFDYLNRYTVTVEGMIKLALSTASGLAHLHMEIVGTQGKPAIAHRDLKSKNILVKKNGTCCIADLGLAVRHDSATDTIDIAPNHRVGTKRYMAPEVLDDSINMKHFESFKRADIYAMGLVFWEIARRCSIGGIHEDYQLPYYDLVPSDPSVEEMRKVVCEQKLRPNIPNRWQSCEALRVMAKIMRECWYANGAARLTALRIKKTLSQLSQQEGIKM
In short: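 After a 60 min room-temperature preincubation of ALK5 with compound, phosphorylation proceeds 60 min at 37 °C on ATP addition (125 μM as 5× stock). Detection: Eu-labelled phospho-Thr1342 Topo IIα antibody in EDTA buffer, pH 7.0; emission 665 nm.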

Structure (SMILES)	IC50 [1]	Ki [2]
Cc1cccc(-c2[nH]cnc2-c2ccc3ncc(-c4ccc(C(=O)O)nc4)cc3c2)n1 [Compound 541, 5-(6-(5-(6-methylpyridin-2-yl)-1H-imidazol-4-yl)quinolin-3-yl)picolinic Acid]	1580 to 10000 nM	< 0.0316 nM
Cc1cccc(-c2n[nH]cc2-c2ccc3ncc(N4CC[C@@H](N5CCCCC5)C4)cc3n2)n1 [Compound 542, 2-[3-(6-methyl-2-pyridyl)-1H-pyrazol-4-yl]-7-[(3R)-3-(1-piperidyl)pyrrolidin-1-yl]-1,5-naphthyridine]	25.1 to 158 nM	< 0.0316 nM
Cc1cccc(-c2n[nH]cc2-c2ccc3ncc(NC4CCCNC4)cc3n2)n1 (stereo not drawn) [Compound 543, 6-[3-(6-methyl-2-pyridyl)-1H-pyrazol-4-yl]-N-(3-piperidyl)-1,5-naphthyridin-3-amine]	25.1 to 158 nM	0.0398 to 0.316 nM
Cc1cccc(-c2[nH]cnc2-c2ccc3ncc(-c4ccc(C(=O)O[C@H]5CCN(C)C5)cc4)cc3c2)n1 [Compound 545, [(3S)-1-methylpyrrolidin-3-yl] 4-[6-[5-(6-methyl-2-pyridyl)-1H-imidazol-4-yl]-3-quinolyl]benzoate]	25.1 to 158 nM	0.0398 to 0.316 nM
Cc1cccc(-c2n[nH]cc2-c2ccc3ncc(-c4nc(C(=O)O)co4)cc3n2)n1 [Compound 546, 2-[6-[3-(6-methyl-2-pyridyl)-1H-pyrazol-4-yl]-1,5-naphthyridin-3-yl]oxazole-4-carboxylic acid]	1580 to 10000 nM	0.398 to 3.16 nM
Cc1cccc(-c2n[nH]cc2-c2ccc3ncc(-c4cnc5n4CCNC5)cc3n2)n1 [Compound 548, 2-[3-(6-methyl-2-pyridyl)-1H-pyrazol-4-yl]-7-(5,6,7,8-tetrahydroimidazo[1,2-a]pyrazin-3-yl)-1,5-naphthyridine]	25.1 to 158 nM	0.0398 to 0.316 nM
CNCc1ccnc2ccc(-c3c[nH]nc3-c3cccc(C)n3)cc12 [Compound 549, N-methyl-1-[6-[3-(6-methyl-2-pyridyl)-1H-pyrazol-4-yl]-4-quinolyl]methanamine]	25.1 to 158 nM	0.398 to 3.16 nM
Cc1cccc(-c2n[nH]cc2-c2ccc3ncc(-c4nnn5c4NCCC5)cc3n2)n1 [Compound 550, 2-[3-(6-methyl-2-pyridyl)-1H-pyrazol-4-yl]-7-(4,5,6,7-tetrahydrotriazolo[1,5-a]pyrimidin-3-yl)-1,5-naphthyridine]	25.1 to 158 nM	0.0398 to 0.316 nM
Cc1nc(-c2n[nH]cc2-c2ccc3ncc(-c4cnn(C[C@H]5CC[C@H](N)CC5)c4)cc3n2)ccc1F [Compound 551, 4-[[4-[6-[3-(5-fluoro-6-methyl-2-pyridyl)-1H-pyrazol-4-yl]-1,5-naphthyridin-3-yl]pyrazol-1-yl]methyl]cyclohexanamine]	25.1 to 158 nM	< 0.0316 nM
Cc1cccc(-c2n[nH]cc2-c2ccc3ncc(-c4ccc(C5CCCN(C)C5)cc4)cc3n2)n1 (stereo not drawn) [Compound 552, 7-[4-(1-methyl-3-piperidyl)phenyl]-2-[3-(6-methyl-2-pyridyl)-1H-pyrazol-4-yl]-1,5-naphthyridine]	200 to 1260 nM	< 0.0316 nM
Cc1cccc(-c2[nH]ncc2-c2ccc3ncc(C(=O)O)cc3n2)n1 [Compound 553, 6-[5-(6-methyl-2-pyridyl)-1H-pyrazol-4-yl]-1,5-naphthyridine-3-carboxylic acid]	1580 to 10000 nM	3.98 to 31.6 nM
CNCCn1cc(-c2cnc3ccc(-c4c[nH]nc4-c4cccc(C)n4)nc3c2)nn1 [Compound 554, N-methyl-2-[4-[6-[3-(6-methyl-2-pyridyl)-1H-pyrazol-4-yl]-1,5-naphthyridin-3-yl]triazol-1-yl]ethanamine]	25.1 to 158 nM	< 0.0316 nM
Cc1nc(-c2nc3ccccn3c2-c2ccc3ncc(-c4cn5c(n4)CNCC5)cc3n2)ccc1F [Compound 555, 2-[2-(5-fluoro-6-methyl-2-pyridyl)imidazo[1,2-a]pyridin-3-yl]-7-(5,6,7,8-tetrahydroimidazo[1,2-a]pyrazin-2-yl)-1,5-naphthyridine]	25.1 to 158 nM	0.0398 to 0.316 nM
Cc1cccc(-c2n[nH]cc2-c2ccc3ncc(NC(C)(C)CN4CCN(C)CC4)cc3n2)n1 [Compound 556, N-[1,1-dimethyl-2-(4-methylpiperazin-1-yl)ethyl]-6-[3-(6-methyl-2-pyridyl)-1H-pyrazol-4-yl]-1,5-naphthyridin-3-amine]	25.1 to 158 nM	0.398 to 3.16 nM
Cc1cccc(-c2[nH]nnc2-c2ccc3ncc(N4CCCNCC4)cc3n2)n1 [Compound 557, 7-(1,4-diazepan-1-yl)-2-[5-(6-methyl-2-pyridyl)-1H-triazol-4-yl]-1,5-naphthyridine]	1580 to 10000 nM	3.98 to 31.6 nM
Cc1nc(-c2nc3ccccn3c2-c2ccc3ncc(-c4cc5n(n4)CCNC5)cc3n2)ccc1F [Compound 558, 2-[2-(5-fluoro-6-methyl-2-pyridyl)imidazo[1,2-a]pyridin-3-yl]-7-(4,5,6,7-tetrahydropyrazolo[1,5-a]pyrazin-2-yl)-1,5-naphthyridine]	25.1 to 158 nM	0.0398 to 0.316 nM
CNCCn1cc(-c2cnc3ccc(-c4nc[nH]c4-c4ccc(F)c(C)n4)nc3c2)cn1 [Compound 559, 2-[4-[6-[5-(5-fluoro-6-methyl-2-pyridyl)-1H-imidazol-4-yl]-1,5-naphthyridin-3-yl]pyrazol-1-yl]-N-methyl-ethanamine]	25.1 to 158 nM	0.0398 to 0.316 nM
Cc1nc(-c2nc3ccccn3c2-c2ccc3ncc(-c4cnc5n4CCNC5)cc3n2)ccc1F [Compound 560, 2-[2-(5-fluoro-6-methyl-2-pyridyl)imidazo[1,2-a]pyridin-3-yl]-7-(5,6,7,8-tetrahydroimidazo[1,2-a]pyrazin-3-yl)-1,5-naphthyridine]	25.1 to 158 nM	0.0398 to 0.316 nM
Cc1cccc(-c2n[nH]cc2-c2ccc3ncc(-c4ccc(N)nc4)cc3n2)n1 [Compound 562, 5-[6-[3-(6-methyl-2-pyridyl)-1H-pyrazol-4-yl]-1,5-naphthyridin-3-yl]pyridin-2-amine]	< 20 nM	< 0.0316 nM
Cc1cccc(-c2[nH]ncc2-c2ccc3ncc(C(=O)O[C@H]4CCN(C)C4)cc3n2)n1 [Compound 563, [(3S)-1-methylpyrrolidin-3-yl]6-[5-(6-methyl-2-pyridyl)-1H-pyrazol-4-yl]-1,5-naphthyridine-3-carboxylate]	25.1 to 158 nM	0.0398 to 0.316 nM
Cc1cccc(-c2n[nH]cc2-c2ccc3ncc(-c4cc5n(n4)CCN5)cc3n2)n1 [Compound 564, 7-(2,3-dihydro-1H-imidazo[1,2-b]pyrazol-6-yl)-2-[3-(6-methyl-2-pyridyl)-1H-pyrazol-4-yl]-1,5-naphthyridine]	< 20 nM	< 0.0316 nM
Cc1cccc(-c2n[nH]cc2-c2ccc3ncc(-c4ccncc4)cc3n2)n1 [Compound 565, 2-[3-(6-methyl-2-pyridyl)-1H-pyrazol-4-yl]-7-(4-pyridyl)-1,5-naphthyridine]	< 20 nM	< 0.0316 nM
Cc1cccc(-c2n[nH]cc2-c2ccc3ncc(NCC4CN5CCN4CC5)cc3n2)n1 (stereo not drawn) [Compound 566, N-(1,4-diazabicyclo[2.2.2]octan-2-ylmethyl)-6-[3-(6-methyl-2-pyridyl)-1H-pyrazol-4-yl]-1,5-naphthyridin-3-amine]	25.1 to 158 nM	0.0398 to 0.316 nM
Cc1cccc(-c2nnn(C)c2-c2ccc3ncc(N4CCCNCC4)cc3c2)n1 [Compound 567, 3-(1,4-diazepan-1-yl)-6-[3-methyl-5-(6-methyl-2-pyridyl)triazol-4-yl]quinoline]	25.1 to 158 nM	0.398 to 3.16 nM
